Our source for the IC50 values is patent publication US8822468B2 (Novartis AG, priority 2008, dated 2014).

As usually defined, the IC50 is the concentration needed to halve the response being measured.

For the assay, the target named is T1, cMET receptor tyrosine kinase (GST-cMET (969-1390)) (Homo sapiens, UniProt P08581).
T1 construct: made in house
T1 sequence (P08581 969-1390): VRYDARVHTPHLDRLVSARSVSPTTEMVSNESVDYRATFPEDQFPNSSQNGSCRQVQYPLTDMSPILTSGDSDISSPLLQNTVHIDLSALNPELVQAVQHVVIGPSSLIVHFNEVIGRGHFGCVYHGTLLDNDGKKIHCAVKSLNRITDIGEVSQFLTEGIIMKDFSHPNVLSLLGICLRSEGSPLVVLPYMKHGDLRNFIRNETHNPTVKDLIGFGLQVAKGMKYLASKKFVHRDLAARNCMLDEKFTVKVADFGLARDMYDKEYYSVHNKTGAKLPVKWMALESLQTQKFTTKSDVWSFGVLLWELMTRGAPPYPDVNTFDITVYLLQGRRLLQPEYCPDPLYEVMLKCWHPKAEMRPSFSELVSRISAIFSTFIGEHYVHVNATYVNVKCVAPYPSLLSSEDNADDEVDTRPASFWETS
Briefly: EPK cMET profiling assay (LanthaScreen TR-FRET antibody based kinase phosphorylation assay). The class given is biochemical. Conditions: purified recombinant GST-cMET (969-1390), 2 μM ATP, 50 nM Fluorescein-PolyEAY, 60 minutes at room temperature; read-out: c-Met IC50. A digest of the protocol: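 Compounds tested at eight final concentrations from 10 down to 0.003 µM against affinity-purified GST-cMET (969-1390, 0.3 nM) with 2 µM ATP and 50 nM fluorescein-PolyEAY in Tris buffer with MgCl2 and MnCl2, 1 h at room temperature. After EDTA stop, phosphoproduct detected by LanthaScreen TR-FRET with Tb-PY20 antibody, end-point measurement.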
A general note: Time-resolved FRET reads energy transfer from a long-lived donor to a nearby acceptor.
Take `CN(c1cccc(Cl)c1)c1ccc2ncc(Cc3ccc4ncccc4c3)n2n1` [Example 138, (3-Chloro-phenyl)-methyl-(3-quinolin-6-ylmethyl-imidazo[1,2-b]pyridazin-6-yl)-amine]: the IC50 stood at 960 nM.
The result for `CS(=O)(=O)c1cccc(Nc2ccc3ncc(Cc4ccc5ncccc5c4)n3n2)c1` [Example 139, (3-Methanesulfonyl-phenyl)-(3-quinolin-6-ylmethyl-imidazo[1,2-b]pyridazin-6-yl)-amine] reads 130 nM; that for `COc1cccc(Nc2ccc3ncc(Cc4ccc5ncccc5c4)n3n2)c1` [Example 140, (3-Methoxy-phenyl)-(3-quinolin-6-ylmethyl-imidazo[1,2-b]pyridazin-6-yl)-amine], 310 nM.
For `[2H]C([2H])(c1ccc2ncccc2c1)c1cnc2ccc(Cl)nn12` [Example 142, 6-[(6-Chloro-imidazo[1,2-b]pyridazin-3-yl)-dideutero-methyl]-quinoline] the value was 210 nM; for `[2H]C([2H])(c1ccc2ncccc2c1)c1cnc2ccc(-c3cnn(C)c3)nn12` [Example 143, 6{Dideutero-[6-(1-methyl-1H-pyrazol-4-yl)-imidazo[1,2-b]pyridazin-3-ylmethyl]}-quinoline], 44 nM; for `O=C(NCCN1CCCC1)c1ccc(-c2ccc3ncc(Cc4ccc5ncccc5c4)n3n2)cc1Cl` [Example 144, 2-Chloro-N-(2-pyrrolidin-1-yl-ethyl)-4-(3-quinolin-6-ylmethyl-imidazo[1,2-b]pyridazin-6-yl)benzamide], 3.2 nM.
For `CN1CC(n2cc(-c3ccc4ncc(Cc5cc6cccnc6cc5F)n4n3)cn2)C1` [Example 146, 7-Fluoro-6-{6-[1-(1-methyl-azetidin-3-yl)-1H-pyrazol-4-yl]-imidazo[1,2-b]pyridazin-3-ylmethyl}-quinoline] the value was 68 nM; for `OCCN1CCC(n2cc(-c3ccc4ncc(Cc5cc6cccnc6cc5F)n4n3)cn2)CC1` [Example 147, 2-(4-{4-[3-(7-Fluoro-quinolin-6-ylmethyl)-imidazo[1,2-b]pyridazin-6-yl]-pyrazol-1-yl}-piperidin-1-yl)-ethanol], 82 nM; for `CCN1CCC(n2cc(-c3ccc4ncc(Cc5cc6cccnc6cc5F)n4n3)cn2)CC1` [Example 148, 6-{6-[1-(1-Ethyl-piperidin-4-yl)-1H-pyrazol-4-yl]-imidazo[1,2-b]pyridazin-3-ylmethyl}-7-fluoro-quinoline], 16 nM.
As to `Fc1cc2ncccc2cc1Cc1cnc2ccc(-c3cnn(C4CCN(CC(F)(F)F)CC4)c3)nn12` [Example 149, 7-Fluoro-6-(6-{1-[1-(2,2,2-trifluoro-ethyl)-piperidin-4-yl]-1H-pyrazol-4-yl}-imidazo[1,2-b]pyridazin-3-ylmethyl)-quinoline], the IC50 was determined as 31 nM.
The result for `Cn1cc(-c2ccc3ncc(Cc4ccc5[nH]ncc5c4)n3n2)cn1` [Example 150, 3-(1H-Indazol-5-ylmethyl)-6-(1-methyl-1H-pyrazol-4-yl)-imidazo[1,2-b]pyridazine] reads 56 nM.
The result for `Cn1cc(-c2ccc3ncc([C@H](O)c4ccc5ncccc5c4)n3n2)cn1` [Example 151, (R)-[6-(1-Methyl-1H-pyrazol-4-yl)-imidazo[1,2-b]pyridazin-3-yl]-quinolin-6-yl-methanol] reads 64 nM; that for `Cn1cc(-c2ccc3ncc([C@@H](O)c4ccc5ncccc5c4)n3n2)cn1` [Example 152, (S)-[6-(1-Methyl-1H-pyrazol-4-yl)-imidazo[1,2-b]pyridazin-3-yl]-quinolin-6-yl-methanol], 890 nM.
For `C=C(c1ccc2ncccc2c1)c1cnc2ccc(-c3cnn(C)c3)nn12` [Example 155, 6-{1-[6-(1-Methyl-1H-pyrazol-4-yl)-imidazo[1,2-b]pyridazin-3-yl]-vinyl}-quinoline] the value was 860 nM; for `C[C@H](c1ccc2ncccc2c1)c1cnc2ccc(-c3cnn(C)c3)nn12` [Example 158, 6-{(R)-1-[6-(1-Methyl-1H-pyrazol-4-yl)-imidazo[1,2-b]pyridazin-3-yl]-ethyl}-quinoline], 540 nM.
For `C[C@@H](c1ccc2ncccc2c1)c1cnc2ccc(-c3cnn(C)c3)nn12` [Example 159, 6-{(S)-1-[6-(1-Methyl-1H-pyrazol-4-yl)-imidazo[1,2-b]pyridazin-3-yl]-ethyl}-quinoline], the IC50 worked out at 14 nM.
For `Cn1cc(-c2ccc3ncc(Cc4ccc5ncccc5c4F)n3n2)cn1` [Example 160, 5-Fluoro-6-[6-(1-methyl-1H-pyrazol-4-yl)-imidazo[1,2-b]pyridazin-3-ylmethyl]-quinoline] the value was 12 nM; for `Cn1cc(-c2ccc3ncc(Cc4ccc5[nH]cnc5c4)n3n2)cn1` [Example 162, 3-(1H-Benzoimidazol-5-ylmethyl)-6-(1-methyl-1H-pyrazol-4-yl)-imidazo[1,2-b]pyridazine], 34 nM.
The result for `Cn1cc(-c2ccc3ncc(C4(c5ccc6ncccc6c5)CC4)n3n2)cn1` [Example 163, 6-{1-[6-(1-Methyl-1H-pyrazol-4-yl)-imidazo[1,2-b]pyridazin-3-yl]-cyclopropyl}-quinoline] reads 110 nM; that for `C[C@@H](c1cc2cn[nH]c2cc1F)c1cnc2ccc(-c3cnn(C)c3)nn12` [Example 165, 3-[(S)-1-(6-Fluoro-1H-indazol-5-yl)-ethyl]-6-(1-methyl-1H-pyrazol-4-yl)-imidazo[1,2-b]pyridazine], 12 nM; that for `Cn1cc(-c2ccc3ncc(Cc4cc5cn[nH]c5cc4F)n3n2)cn1` [Example 167, 3-(6-Fluoro-1H-indazol-5-ylmethyl)-6-(1-methyl-1H-pyrazol-4-yl)-imidazo[1,2-b]pyridazine], 6 nM.
Consider `Cn1cc(-c2ccc3ncc(Cc4cc5cccnc5cc4C(F)(F)F)n3n2)cn1` [Example 169, 6-[6-(1-Methyl-1H-pyrazol-4-yl)-imidazo[1,2-b]pyridazin-3-ylmethyl]-7-trifluoromethyl-quinoline], for which the IC50 came to 400 nM.
For `Cn1cc(-c2ccc3ncc(Cc4c(F)cc5ncccc5c4F)n3n2)cn1` [Example 170, 5,7-Difluoro-6-[6-(1-methyl-1H-pyrazol-4-yl)-imidazo[1,2-b]pyridazin-3-ylmethyl]-quinoline] the value was 6 nM; for `OCCn1cc(-c2ccc3ncc(Cc4c(F)cc5ncccc5c4F)n3n2)cn1` [Example 171, 2-{4-[3-(5,7-Difluoro-quinolin-6-ylmethyl)-imidazo[1,2-b]pyridazin-6-yl]-pyrazol-1-yl}-ethanol], less than 3 nM.
For `Cn1cc(-c2ccc3ncc(Cc4ccc5ncccc5c4Cl)n3n2)cn1` [Example 172, 5-Chloro-6-[6-(1-methyl-1H-pyrazol-4-yl)-imidazo[1,2-b]pyridazin-3-ylmethyl]-quinoline] the value was 10 nM; for `Cn1cc(-c2ccc3ncc(Cc4cc5cccnc5cc4F)n3n2)cn1` [Example 173, 7-Fluoro-6-[6-(1-methyl-1H-pyrazol-4-yl)-imidazo[1,2-b]pyridazin-3-ylmethyl]-quinoline], 4 nM; for `Cn1cc(-c2ccc3ncc([C@](C)(O)c4cc5cccnc5cc4F)n3n2)cn1` [Example 175, (R)-1-(7-Fluoro-quinolin-6-yl)-1-[6-(1-methyl-1H-pyrazol-4-yl)-imidazo[1,2-b]pyridazin-3-yl]-ethanol], 38 nM.
For `C[C@@H](c1ccc2ncccc2c1)c1cnc2ccc(-c3cnn(CCO)c3)nn12` [Example 179, 2-{4-[3-((S)-1-Quinolin-6-yl-ethyl)-imidazo[1,2-b]pyridazin-6-yl]-pyrazol-1-yl}-ethanol] the value was 15 nM.
Take `Fc1cc2ncccc2cc1Cc1cnc2ccc(-c3cnn(C4CCNCC4)c3)nn12` [Example 180, 7-Fluoro-6-[6-(1-piperidin-4-yl-1H-pyrazol-4-yl)-imidazo[1,2-b]pyridazin-3-ylmethyl]-quinoline]: the IC50 was 145 nM.
The result for `CN1CCC(n2cc(-c3ccc4ncc(Cc5cc6cccnc6cc5F)n4n3)cn2)CC1` [Example 181, 7-Fluoro-6-{6-[1-(1-methyl-piperidin-4-yl)-1H-pyrazol-4-yl]-imidazo[1,2-b]pyridazin-3-ylmethyl}-quinoline] reads 65 nM; that for `C[C@H](c1c(F)cc2ncccc2c1F)c1cnc2ccc(-c3cnn(CCO)c3)nn12` [Example 183, 2-(4-{3-[(R)-1-(5,7-Difluoro-quinolin-6-yl)-ethyl]-imidazo[1,2-b]pyridazin-6-yl}-pyrazol-1-yl)ethanol], 200 nM.
For the compound `C[C@@H](c1c(F)cc2ncccc2c1F)c1cnc2ccc(-c3cnn(CCO)c3)nn12` [Example 184, 2-(4-{3-[(S)-1-(5,7-Difluoro-quinolin-6-yl)-ethyl]-imidazo[1,2-b]pyridazin-6-yl}-pyrazol-1-yl)ethanol], the IC50 was less than 3 nM.
The result for `C[C@@H](c1ccc2ncn(C)c2c1)c1cnc2ccc(-c3cnn(CCO)c3)nn12` [Example 187, 2-(4-{3-[(S)-1-(3-Methyl-3H-benzoimidazol-5-yl)-ethyl]-imidazo[1,2-b]pyridazin-6-yl}-pyrazol-1-yl)-ethanol] reads 19 nM; that for `C[C@@H](c1c(F)cc2ncccc2c1F)c1cnc2ccc(-c3cnn(C)c3)nn12` [Example 192, 5,7-Difluoro-6-{(S)-1-[6-(1-methyl-1H-pyrazol-4-yl)-imidazo[1,2-b]pyridazin-3-yl]-ethyl}-quinoline], less than 3 nM.
Consider `C[C@H](c1c(F)cc2ncccc2c1F)c1cnc2ccc(-c3cnn(C)c3)nn12` [Example 193, 5,7-Difluoro-6-{(R)-1-[6-(1-methyl-1H-pyrazol-4-yl)-imidazo[1,2-b]pyridazin-3-yl]-ethyl}-quinoline], for which the IC50 turned out to be 250 nM.
On to `C[C@@H](c1cc2cnn(C)c2cc1F)c1cnc2ccc(-c3cnn(C)c3)nn12` [Example 194, 3-[(S)-1-(6-Fluoro-1-methyl-1H-indazol-5-yl)-ethyl]-6-(1-methyl-1H-pyrazol-4-yl)-imidazo[1,2-b]pyridazine], for which the IC50 turned out to be 18 nM.
